Measured values: patent US9073907B2, “Thiazoles derivatives and their use as positive allosteric modulators of metabotropic glutamate receptors” (Addex Pharma S.A., priority 2009, dated 2015)
pEC50: −log10 of the molar value. Several values for one entry are separate records, joined by “and”; a condition that tells them apart may be missing. Equal values may be shown once.

Tests used:
[1] = target: T1, recombinant human mGluR4a receptors (Homo sapiens, UniProt Q14833); experiment: mGluR4 assay on HEK-expressing human mGluR4: fluorescent cell based Ca2+ mobilization assay (FLIPR, Fluo-4); conditions: enhancement of EC25 glutamate response in HEK-293 cells expressing hmGluR4; mean of at least three independent experiments performed in duplicate; read-out: Ca^2+ Flux (mean EC50)
T1 construct: expressed in transfected cells
T1 sequence (Q14833 33-912): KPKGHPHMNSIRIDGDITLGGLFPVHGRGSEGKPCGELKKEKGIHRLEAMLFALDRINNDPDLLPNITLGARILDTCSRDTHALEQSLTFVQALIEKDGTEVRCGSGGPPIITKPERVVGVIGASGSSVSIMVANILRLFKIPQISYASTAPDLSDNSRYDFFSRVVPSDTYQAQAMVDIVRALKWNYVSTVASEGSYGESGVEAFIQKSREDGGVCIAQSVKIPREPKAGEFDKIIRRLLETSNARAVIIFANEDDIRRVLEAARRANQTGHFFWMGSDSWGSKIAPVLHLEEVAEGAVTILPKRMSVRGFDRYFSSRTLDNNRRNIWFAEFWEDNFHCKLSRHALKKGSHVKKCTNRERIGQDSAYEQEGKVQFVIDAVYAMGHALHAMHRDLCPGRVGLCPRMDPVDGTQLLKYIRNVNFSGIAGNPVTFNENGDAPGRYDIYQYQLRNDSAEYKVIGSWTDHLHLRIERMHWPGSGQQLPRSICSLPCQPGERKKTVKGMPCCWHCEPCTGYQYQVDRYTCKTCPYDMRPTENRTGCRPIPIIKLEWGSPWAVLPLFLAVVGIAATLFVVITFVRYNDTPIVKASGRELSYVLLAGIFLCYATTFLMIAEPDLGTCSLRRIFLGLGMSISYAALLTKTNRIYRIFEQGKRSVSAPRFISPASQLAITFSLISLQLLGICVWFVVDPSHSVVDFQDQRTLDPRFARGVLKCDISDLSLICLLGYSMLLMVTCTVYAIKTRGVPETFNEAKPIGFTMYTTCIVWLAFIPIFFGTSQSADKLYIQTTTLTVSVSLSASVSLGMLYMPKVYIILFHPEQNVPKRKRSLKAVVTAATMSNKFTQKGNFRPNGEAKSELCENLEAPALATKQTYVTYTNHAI
From the text: mGluR4 Assay on HEK-Expressing Human mGluR4 The compounds of the present invention are positive allosteric modulators of mGluR4 receptor. Their activity was examined on recombinant human mGluR4a receptors by detecting changes in intracellular Ca^2+ concentration, using the fluorescent Ca^2+-sensitive dye Fluo-4-(AM) and a Fluorometric Imaging Plate Reader (FLIPR, Molecular Devices, Sunnyvale, Calif.). The cDNA encoding the human metabotropic glutamate receptor (hmGluR4), (accession number NM_000841.1, NCBI Nucleotide database browser), was subcloned into an expression vector containing also the hygromycin resistance gene. In parallel, the cDNA encoding a G protein allowing redirection of the activation signal to intracellular calcium flux was subcloned into a different expression vector containing also the puromycin resistance gene. Transfection of both these vectors into HEK293 cells with PolyFect reagent (Qiagen) according to supplier's protocol, and hygromycin and puromycin treatment allowed selection of antibiotic resistant cells which had integrated stably one or more copies of the plasmids. Positive cellular clones expressing hmGluR4 were identified in a functional assay measuring changes in calcium fluxes in response to glutamate or selective known mGluR4 orthosteric agonists and antagonists. HEK-293 cells expressing hmGluR4 were maintained in media containing DMEM, dialyzed Fetal Calf Serum (10%), Glutamax™ (2 mM), Penicillin (100 units/mL), Streptomycin (100 μg/mL), Geneticin (100 μg/mL) and Hygromycin-B (40 μg/mL) and puromycin (1 μg/mL) at 37° C./5% CO2. Human mGluR4 HEK-293 cells were plated out 24 hours prior to FLIPR^384 assay in black-walled, clear-bottomed, poly-L-ornithine-coated 384-well plates at a density of 25,000 cells/well in a glutamine/glutamate free DMEM medium containing foetal bovine serum (10%), penicillin (100 units/mL) and streptomycin (100 μg/mL) at 37° C./5% CO2. On the day of the assay, the medium was aspirated and the cells were loaded with a 3 μM solution of Fluo4-AM (LuBioScience, Lucerne, Switzerland) in 0.03% pluronic acid. After 1 hour at 37° C./5% CO2, the non incorporated dye was removed by washing cell plate with the assay buffer and the cells were left in the dark at room temperature for […] before testing. All assays were performed in a pH 7.4 buffered-solution containing 20 mM HEPES, 143 mM NaCl, 6 mM KCl, 1 mM MgSO4, 1 mM CaCl2, 0.125 mM sulfapyrazone and 0.1% glucose. After 10 s of basal fluorescence recording, various concentrations of the compounds of the invention were added to the cells. Changes in fluorescence levels were first monitored for 180 s in order to detect any agonist activity of the compounds. Then the cells were stimulated by an EC25 glutamate concentration for an additional 110 s in order to measure enhancing activities of the compounds of the invention. EC25 glutamate concentration is the concentration giving 25% of the maximal glutamate response. The concentration-response curves of representative compounds of the present invention were generated using the Prism GraphPad software (Graph Pad Inc, San Diego, USA). The curves were fitted to a four-parameter logistic equation: (Y=Bottom+(Top−Bottom)/(1+10^((Log EC50−X)*Hill Slope) allowing the determination of EC50 values. The Table 3 below represents the mean EC50 obtained from at least three independent experiments of selected molecules performed in duplicate.

pEC50 [1] | melting point | Compound
6.00 to 7.00 | 331 °C | Cc1sc(Nc2cccc(C#N)n2)nc1-c1cn[nH]c1 [Compound 1-1, 6-(5-Methyl-4-(1H-pyrazol-4-yl)thiazol-2-ylamino)picolinonitrile]
6.00 to 7.00 | – | c1ccc(Nc2nc(-c3c[nH]nc3CC3CC3)cs2)nc1 [Compound 1-6, 4-(3-(Cyclopropylmethyl)-1H-pyrazol-4-yl)-N-(pyridin-2-yl)thiazol-2-amine]
5.00 to 6.00 | 209 °C | c1ccc(Nc2nc(-c3cn[nH]c3)c(N3CCCC3)s2)nc1 [Compound 1-8, 4-(1H-Pyrazol-4-yl)-N-(pyridin-2-yl)-5-(pyrrolidin-1-yl)thiazol-2-amine]
> 7.00 | 237 °C | Fc1cccc(Nc2nc(-c3cn[nH]c3)c(F)s2)n1 [Compound 1-10, 5-Fluoro-N-(6-fluoropyridin-2-yl)-4-(1H-pyrazol-4-yl)thiazol-2-amine]
> 7.00 | 298 to 300 °C | Cc1sc(Nc2ncccn2)nc1-c1cn[nH]c1 [Compound 1-16, 5-Methyl-4-(1H-pyrazol-4-yl)-N-(pyrimidin-2-yl)thiazol-2-amine]
> 7.00 | 299 to 304 °C | Clc1[nH]ncc1-c1csc(Nc2ccccn2)n1 [Compound 1-17, 4-(5-Chloro-1H-pyrazol-4-yl)-N-(pyridin-2-yl)thiazol-2-amine]
6.00 to 7.00 | – | COCc1sc(Nc2ccccn2)nc1-c1cn[nH]c1 [Compound 1-18, 5-(Methoxymethyl)-4-(1H-pyrazol-4-yl)-N-(pyridin-2-yl)thiazol-2-amine]
5.00 to 6.00 | – | c1ccc(Nc2nc(-c3cn[nH]c3)c(CN3CCOCC3)s2)nc1 [Compound 1-21, 5-(Morpholinomethyl)-4-(1H-pyrazol-4-yl)-N-(pyridin-2-yl)thiazol-2-amine]
6.00 to 7.00 | – | N#Cc1[nH]ncc1-c1csc(Nc2ccccn2)n1 [Compound 1-26, 4-(2-(Pyridin-2-ylamino)thiazol-4-yl)-1H-pyrazole-5-carbonitrile]
5.00 to 6.00 | 209 to 211 °C | Cn1ccc(Nc2nc(-c3cn[nH]c3)cs2)n1 [Compound 1-27, N-(1-Methyl-1H-pyrazol-3-yl)-4-(1H-pyrazol-4-yl)thiazol-2-amine]
– | 229 to 231 °C | c1ccc(-c2n[nH]cc2-c2csc(Nc3ccccn3)n2)cc1 [Compound 1-37, 4-(3-Phenyl-1H-pyrazol-4-yl)-N-(pyridin-2-yl)thiazol-2-amine]
– | 190 °C | COCc1n[nH]cc1-c1csc(Nc2ccccn2)n1 [Compound 1-40, 4-(3-(Methoxymethyl)-1H-pyrazol-4-yl)-N-(pyridin-2-yl)thiazol-2-amine]
– | 236 to 239 °C | Cc1nc(Nc2nc(-c3cn[nH]c3)cs2)cs1 [Compound 1-41, N-(2-Methylthiazol-4-yl)-4-(1H-pyrazol-4-yl)thiazol-2-amine]
– | 277 to 280 °C | c1csc(Nc2nc(-c3cn[nH]c3)cs2)n1 [Compound 1-42, 4-(1H-Pyrazol-4-yl)-N-(thiazol-2-yl)thiazol-2-amine]
– | 270 to 280 °C | Cc1sc(Nc2cccc(CF)n2)nc1-c1cn[nH]c1 [Compound 1-43, N-(6-(Fluoromethyl)pyridin-2-yl)-5-methyl-4-(1H-pyrazol-4-yl)thiazol-2-amine]
– | 269 to 271 °C | Cc1sc(Nc2cccc(C(F)F)n2)nc1-c1cn[nH]c1 [Compound 1-44, N-(6-(Difluoromethyl)pyridin-2-yl)-5-methyl-4-(1H-pyrazol-4-yl)thiazol-2-amine]

pEC50 [1] | melting point | Compound
– | 310 to 313 °C | Clc1sc(Nc2ncccn2)nc1-c1cn[nH]c1 [Compound 1-45, 5-Chloro-4-(1H-pyrazol-4-yl)-N-(pyrimidin-2-yl)thiazol-2-amine]
– | 223 to 225 °C | CCc1ccnc(Nc2nc(-c3cn[nH]c3)c(C)s2)n1 [Compound 1-46, N-(4-Ethylpyrimidin-2-yl)-5-methyl-4-(1H-pyrazol-4-yl)thiazol-2-amine]
– | 243 °C | Cc1ccnc(Nc2nc(-c3cn[nH]c3)c(Cl)s2)n1 [Compound 1-49, 5-Chloro-N-(4-methylpyrimidin-2-yl)-4-(1H-pyrazol-4-yl)thiazol-2-amine]
– | 196 to 204 °C | CN1CCC(Nc2nc(-c3cn[nH]c3)cs2)C1=O (stereo not drawn) [Compound 1-50, 3-(4-(1H-Pyrazol-4-yl)thiazol-2-ylamino)-1-methylpyrrolidin-2-one]
– | 249 to 252 °C | Cc1sc(Nc2nccc(C(C)C)n2)nc1-c1cn[nH]c1 [Compound 1-52, N-(4-Isopropylpyrimidin-2-yl)-5-methyl-4-(1H-pyrazol-4-yl)thiazol-2-amine]
– | 305 to 310 °C | CC(=O)c1[nH]ncc1-c1csc(Nc2nccc(C)n2)n1 [Compound 1-54, 1-(4-(2-(4-Methylpyrimidin-2-ylamino)thiazol-4-yl)-1H-pyrazol-5-yl)ethanone]
– | 256 °C | Fc1cnc(Nc2nc(-c3cn[nH]c3)cs2)nc1 [Compound 1-55, N-(5-Fluoropyrimidin-2-yl)-4-(1H-pyrazol-4-yl)thiazol-2-amine]
– | 256 °C | Cc1ccnc(Nc2nc(-c3c[nH]nc3N3CCCCC3)cs2)n1 [Compound 1-57, N-(4-Methylpyrimidin-2-yl)-4-(3-(piperidin-1-yl)-1H-pyrazol-4-yl)thiazol-2-amine]
– | 311 to 312 °C | c1cnc(Nc2nc(-c3cn[nH]c3)cs2)nc1 [Compound 1-59, 4-(1H-Pyrazol-4-yl)-N-(pyrimidin-2-yl)thiazol-2-amine]
– | 260 °C | Cc1ccnc(Nc2nc(-c3c[nH]nc3N3CCOCC3)cs2)n1 [Compound 1-60, N-(4-Methylpyrimidin-2-yl)-4-(3-morpholino-1H-pyrazol-4-yl)thiazol-2-amine]
5.00 to 6.00 | 175 °C and 180 °C | CC(=O)NCn1cc(-c2nc(Nc3ccccn3)sc2C)cn1 [Compound 1-61, N-((4-(5-Methyl-2-(pyridin-2-ylamino)thiazol-4-yl)-1H-pyrazol-1-yl)methyl)acetamide]
– | 228 to 231 °C | Cc1sc(Nc2nccc(C3CC3)n2)nc1-c1cn[nH]c1 [Compound 1-62, N-(4-Cyclopropylpyrimidin-2-yl)-5-methyl-4-(1H-pyrazol-4-yl)thiazol-2-amine]
– | 226 to 227 °C | Cc1sc(Nc2ccccn2)nc1-c1cnn(C(=O)c2ccccn2)c1 [Compound 1-63, (4-(5-Methyl-2-(pyridin-2-ylamino)thiazol-4-yl)-1H-pyrazol-1-yl)(pyridin-2-yl)methanone]
5.00 to 6.00 | – | CN(C)c1[nH]ncc1-c1csc(Nc2ncccn2)n1 [Compound 1-65, 4-(5-(Dimethylamino)-1H-pyrazol-4-yl)-N-(pyrimidin-2-yl)thiazol-2-amine]
– | 244 °C | O=C(c1[nH]ncc1-c1csc(Nc2ncccn2)n1)C1CC1 [Compound 1-66, Cyclopropyl(4-(2-(pyrimidin-2-ylamino)thiazol-4-yl)-1H-pyrazol-5-yl)methanone]
– | 287 °C | CC(=O)c1[nH]ncc1-c1csc(Nc2ncccn2)n1 [Compound 1-67, 1-(4-(2-(Pyrimidin-2-ylamino)thiazol-4-yl)-1H-pyrazol-5-yl)ethanone]
